The record followed here is patent US7276523B2, “Aminopyridine derivatives as estrogen receptor modulators” (SmithKline Beecham Corporation, priority 2001, dated 2007).

In test [1] the target is T1, GST-hERβ (ligand binding domain) (Homo sapiens, UniProt Q92731).
T1 construct: made in house; host or cells: E. coli BL21(DE3)pLysS
In words: Competition binding assay (SPA, [3H]estradiol), ER beta. Here is the method:
(§1) The ligand binding domain of both ERα and ERβ were subcloned into pGEX-2T vector, which had been modified to contain KpnI and BamHI restriction, sites in the multiple cloning region. GST-hERα and GST-hERβ proteins were made by transforming BL21(DE3)pLYS S competent cells with the appropriate expression plasmid. Liquid cultures containing standard Luria-Bertani (LB) broth with 0.1 mg/ml ampicillin and 0.033 mg/ml chloramphenicol were grown at 37° C. to an OD600 of 0.5-1.0 then induced with IPTG for 2-3 hours. The cells were collected by centrifugation and resuspended in lysis buffer (50 mM Tris pH 7.9; 250 mM KCl; 1% Triton X-100; 10 mM DTT; 1 mM PMSF). The lysate was then placed on dry ice until completely frozen. The frozen lysate was thawed and centrifuged 20 min at 4° C. at 80 K rpm in a TLA 100.2 rotor in a Beckman TL-100 ultracentrifuge. The supernatant was retained and glycerol was added to a final concentration of 10%. The protein content of the supernatant was quantitated using the BioRad Protein Assay Reagent. The protein was then stored at −80° C. until used in the binding assay.
Polylysine coated Yttrium Silicate SPA beads (Amersham #RPNQ 0010) was resuspended in assay buffer [10 mM potassium phosphate buffer pH 7.0 containing 2 mM EDTA, 50 mM NaCl, 1 mM DTT, 2 mM CHAPS, 10% glycerol] to a concentration of 1 g/60 ml. 30 ul (0.5 mg) of the SPA beads was then added to each well of a Packard OptiPlate (Packard 6005190, Packard Instruments, Meriden, Conn.). […] [2, 4, 6, 7, 16, 17-3H(N)]-Estradiol was added as a 30 ul aliquot to give a final assay concentration of 1 nM. To give a final volume of 100 ul, either 10 ul of a test compound solution (typically in 10% DMSO as solvent), solvent containing no test compound (to determine total binding, T), or solvent containing 17-b-estradiol at 100 uM (to determine non-specific binding, NS) were finally added to the plate. The plates were shaken vigorously for two hours then counted on a Packard TopCount using the protocol for counting tritium yttrium silicate SPA beads. Data analysis was done by standard methods. % Bound was calculated for each concentration of each test compound using the equation % Bound=100*((Test−NS)/(T−NS)). % Bound was plotted vs concentration and curve fitting was accomplished using non-linear regression.
Saturation binding assays were run similarly to competition assays. […] [2, 4, 6, 7, 16, 17-3H(N)]-Estradiol was added such that the final concentration ranged from 0.1 to 100 nM.

Test [2] has as its target T2, GST-hERα (ligand binding domain) (Homo sapiens, UniProt P03372).
T2 construct: made in house; host or cells: E. coli BL21(DE3)pLysS
T2 sequence (P03372 311-547 limits assumed): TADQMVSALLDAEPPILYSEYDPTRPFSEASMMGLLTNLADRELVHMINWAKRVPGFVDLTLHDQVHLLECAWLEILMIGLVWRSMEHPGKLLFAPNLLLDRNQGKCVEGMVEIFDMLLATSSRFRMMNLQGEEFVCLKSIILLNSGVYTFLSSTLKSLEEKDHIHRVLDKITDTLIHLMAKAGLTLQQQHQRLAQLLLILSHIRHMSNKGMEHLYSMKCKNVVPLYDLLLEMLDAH
Description: Competition binding assay (SPA, [3H]estradiol), ER alpha. The note with it: read-out: Avg. ER alpha Ki (n). As for the experimental part: as §1, with “Liquid cultures containing standard Luria-Bertani (LB) broth with 0.1 mg/ml ampicillin and 0.033 mg/ml chloramphenicol were grown at 37° C. to an OD600 of 0.5-1.0 then induced with IPTG for 2-3 hours.” left out
Polylysine coated Yttrium Silicate SPA beads (Amersham #RPNQ 0010) was resuspended in assay buffer [10 mM potassium phosphate buffer pH 7.0 containing 2 mM EDTA, 50 mM NaCl, 1 mM DTT, 2 mM CHAPS, 10% glycerol] to a concentration of 1 g/60 ml. 30 ul (0.5 mg) of the SPA beads was then added to each well of a Packard OptiPlate (Packard 6005190, Packard Instruments, Meriden, Conn.). […] The plates were shaken vigorously for two hours then counted on a Packard TopCount using the protocol for counting tritium yttrium silicate SPA beads. Data analysis was done by standard methods. % Bound was calculated for each concentration of each test compound using the equation % Bound=100*((Test−NS)/(T−NS)). % Bound was plotted vs concentration and curve fitting was accomplished using non-linear regression.
Saturation binding assays were run similarly to competition assays.

The structures appear in SMILES notation.

T1 sequence (Q92731 264-498 limits assumed): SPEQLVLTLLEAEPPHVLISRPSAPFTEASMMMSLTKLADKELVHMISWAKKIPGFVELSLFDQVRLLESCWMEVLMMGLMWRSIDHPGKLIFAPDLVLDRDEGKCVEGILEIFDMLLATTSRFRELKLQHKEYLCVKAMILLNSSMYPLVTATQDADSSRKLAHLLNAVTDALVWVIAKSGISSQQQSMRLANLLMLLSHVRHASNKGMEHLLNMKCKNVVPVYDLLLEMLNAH

For the compound `Cc1cc(O)ccc1-c1cc(-c2ccccc2)cc(N(C)Cc2cccc3ccccc23)n1` [Example 18, 3-methyl-4-{6-[methyl(1-naphthylmethyl)amino]-4-phenyl-2-pyridinyl}phenol], the values for the inhibition constant Ki in test [1] and in test [2] were 1.41 µM and 0.45 µM, respectively.
`CCN(Cc1ccncc1)c1cc(-c2ccccc2)cc(-c2ccc(O)cc2C)n1` [Example 28, 4-{6-[ethyl(4-pyridinylmethyl)amino]-4-phenyl-2-pyridinyl}-3-methylphenol]: the results for the Ki in test [1] and in test [2] were 1 µM and 0.83 µM, respectively.
In the case of `Cc1cc(O)ccc1-c1cc(-c2ccccc2)cc(N2CCC(Cc3ccccc3)CC2)n1` [Example 29, 4-[6-(4-benzyl-1-piperidinyl)-4-phenyl-2-pyridinyl]-3-methylphenol], the results for the Ki in test [1] and in test [2] were 0.11 µM and 0.02 µM, respectively.
For `CCCCN(C)c1cc(-c2ccccc2)cc(-c2cccc(O)c2)n1` [Example 12, 3-{6-[butyl(methyl)amino]-4-phenyl-2-pyridinyl}phenol], the Ki in test [1] was 0.79 µM; in test [2], 0.66 µM.
For the compound `CCCN(Cc1ccccn1)c1cc(-c2ccccc2)cc(-c2ccc(O)cc2C)n1` [Example 26, 3-methyl-4-{4-phenyl-6-[propyl(2-pyridinylmethyl)amino]-2-pyridinyl}phenol], the inhibitory constant (Ki) in test [1] stood at 0.33 µM; in test [2], 0.07 µM.
On to `Cc1cc(O)ccc1-c1cc(-c2ccccc2)cc(N(C)Cc2ccccc2)n1` [Example 15, 4-{6-[benzyl(methyl)amino]-4-phenyl-2-pyridinyl}-3-methylphenol], for which the Ki in test [1] stood at 1.12 µM; in test [2] it was 0.38 µM.
In the case of `CC(C)CCN(C)c1cc(-c2ccccc2)cc(-c2ccc(O)cc2)n1` [Example 20, 4-{6-[isopentyl(methyl)amino]-4-phenyl-2-pyridinyl}phenol], the figures for the Ki in test [1] and in test [2] were 1.26 µM and 0.62 µM, respectively.
Take `Cc1cc(O)ccc1-c1cc(-c2ccccc2)cc(N(C)CCC(C)C)n1` [Example 21, 4-{6-[isopentyl(methyl)amino]-4-phenyl-2-pyridinyl}-3-methylphenol]: the Ki in test [1] amounted to 0.66 µM; in test [2], 0.21 µM.
For `CCOCCN(CCOCC)c1cc(-c2ccccc2)cc(-c2ccc(O)cc2C)n1` [Example 32, 4-{6-[bis(2-ethoxyethyl)amino]-4-phenyl-2-pyridinyl}-3-methylphenol], in that order: 1.17 µM and 2 µM.
For `Cc1cc(O)ccc1-c1cc(-c2ccccc2)cc(N(CCc2ccccc2)Cc2ccccc2)n1` [Example 31, 4-{6-[benzyl(2-phenylethyl)amino]-4-phenyl-2-pyridinyl}-3-methylphenol], the Ki in test [1] stood at 0.25 µM; in test [2], 0.13 µM.
In the same order, the values of `Cc1cc(O)ccc1-c1cc(-c2ccccc2)cc(N(C)CCc2ccccn2)n1` [Example 23, 3-methyl-4-(6-{methyl[2-(2-pyridinyl)ethyl]amino}-4-phenyl-2-pyridinyl)phenol] are above 3 µM and 1.26 µM.
Take `Cc1cc(O)ccc1-c1cc(-c2ccccc2)cc(N(C)CCc2ccccc2)n1` [Example 6, 3-methyl-4-{6-[methyl(2-phenylethyl)amino]-4-phenyl-2-pyridinyl}phenol]: the Ki in test [1] is 0.68 µM; in test [2] it was 0.16 µM.

For orientation: Ki means the dissociation constant of the complex between target and ligand, obtained from inhibition or displacement.
